Among the data in ChEMBL document CHEMBL5244274, “Designing Out PXR Activity on Drug Discovery Projects: A Review of Structure-Based Methods, Empirical and Computational Approaches” (J Med Chem, 2021) are Activity values, retold here.

What all share (assay type): ADME
Holding throughout (parameters): scale not given: the % may be the effect or the level left

In data set [1] the target is T1, Cytochrome P450 3A4 (Homo sapiens, UniProt P08684). Description: Induction of CYP3A4 in human assessed as reduction in darunavir AUC.
T1 sequence (P08684 whole entry): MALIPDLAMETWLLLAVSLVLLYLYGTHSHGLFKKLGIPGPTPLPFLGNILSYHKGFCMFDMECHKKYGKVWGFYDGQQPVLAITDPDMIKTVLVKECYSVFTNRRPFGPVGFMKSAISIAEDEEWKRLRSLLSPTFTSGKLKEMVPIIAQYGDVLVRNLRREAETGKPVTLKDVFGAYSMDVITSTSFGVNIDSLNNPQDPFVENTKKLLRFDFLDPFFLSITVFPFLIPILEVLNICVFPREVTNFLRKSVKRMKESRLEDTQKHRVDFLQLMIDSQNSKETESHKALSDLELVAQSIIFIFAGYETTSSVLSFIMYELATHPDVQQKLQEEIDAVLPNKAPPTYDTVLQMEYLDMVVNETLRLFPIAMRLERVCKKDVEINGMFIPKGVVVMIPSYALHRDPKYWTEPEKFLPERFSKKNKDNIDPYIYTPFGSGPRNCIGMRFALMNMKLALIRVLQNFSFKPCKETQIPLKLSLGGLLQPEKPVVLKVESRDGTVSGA
The subject of the next data set is Cytochrome P450. Description: Induction of CYP450 in human assessed as reduction in indinavir AUC.
Data set [2] concerns the target T1, Cytochrome P450 3A4. Description: Induction of CYP3A4 in human assessed as decrease in triazolam AUC.
The target of data set [3] is T1, Cytochrome P450 3A4. Description: Induction of CYP3A4 in human assessed as decrease in simvastatin AUC.

Molecules are shown by their SMILES.

`Cc1nnc(C(=O)NC(C)(C)c2nc(C(=O)NCc3ccc(F)cc3)c(O)c(=O)n2C)o1`: the Activity at Cytochrome P450 3A4 [1] was 42%.
In the case of `Cc1ccnc2c1NC(=O)c1cccnc1N2C1CC1` [NEVIRAPINE], the Activity with Cytochrome P450 stood at 32%.
As to `NC(=O)c1cn(Cc2c(F)cccc2F)nn1` [RUFINAMIDE], on Cytochrome P450 3A4 [2], the Activity turned out to be 36%.
As for `Cc1c(C)c2c(c(C)c1O)CCC(C)(COc1ccc(CC3SC(=O)NC3=O)cc1)O2` (centres undefined) [TROGLITAZONE], at Cytochrome P450 3A4 [3], the Activity stood at 38%.
